Data from US20060035977A1, “Uses of acylated aminopropanediols and sulphur and nitrogen analogues of same f” (Gentif, priority 2003, published 2006).
Blank lines part the entries; values can stand above or below the compound they belong to.

Legend:
LDL = assay: Protection against LDL oxidation induced by copper (conjugated diene formation); format: biochemical; conditions: for antioxidant activity on LDL oxidation induced by copper: conjugated diene formation, 30° C., 8 hours; for shift in the lag phase latency (delay): LDL oxidation induced by copper, conjugated dienes at 234 nm, relative to control (FIG. 4A)
Method: LDL were prepared as described in Lebeau et al. (Lebeau, Furman et al. 2000). The solutions of the test compounds were prepared at 10^−2 M in ethanol and diluted in PBS so that the final concentration ranged from 0.1 to 100 μM with a total ethanol concentration of 1% (VN).
Before oxidation, EDTA was removed from the LDL preparation by dialysis. The oxidation reaction was then carried out at 30° C. by adding 100 μl of 16.6 μM CuSO4 to 800 μl of LDL (125 μg protein/ml) and 100 μl of a test compound solution. The formation of dienes, the species to be followed, was measured by the optical density at 234 nm in the samples treated with the compounds in the presence or absence of copper. Optical density at 234 nm was measured every 10 minutes for 8 hours on a thermostated spectrophotometer (Kontron Uvikon 930). The analyses were carried out in triplicate. A compound was considered to have antioxidant activity when it shifted the lag phase latency relative to the control sample. […] FIG. 4 presents an example of the results obtained with the inventive compounds.

Gal4/PPARα = molecular target: T1, Gal4/PPARα (Homo sapiens, UniProt Q07869); assay: Gal4/PPARα transactivation system in HepG2 cells (luciferase reporter); conditions: 24 h, HepG2 cells transfected with Gal4/PPARα plasmids, compound in PC liposomes
T1 sequence (Q07869 239-466 limits assumed): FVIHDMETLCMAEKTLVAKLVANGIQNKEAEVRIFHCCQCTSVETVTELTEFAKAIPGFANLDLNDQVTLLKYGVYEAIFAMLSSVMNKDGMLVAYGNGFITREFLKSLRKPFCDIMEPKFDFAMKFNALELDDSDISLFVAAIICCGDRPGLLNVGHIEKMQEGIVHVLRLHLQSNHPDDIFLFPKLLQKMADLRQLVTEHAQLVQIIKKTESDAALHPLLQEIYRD
Method: PPAR activation was tested in vitro in RK13 fibroblast cell lines or in a hematocyte line HepG2 by measuring the transcriptional activity of chimeras composed of the DNA binding domain of the yeast gal4 transcription factor and the ligand binding domain of the different PPARs. The example below is given for HepG2 cells.
HepG2 cells were from ECACC (Porton Down, UK) and were grown in DMEM medium supplemented with 10% (V/V) fetal calf serum, 100 U/ml penicillin (Gibco, Paisley, UK) and 2 mM L-glutamine (Gibco, Paisley, UK). The culture medium was changed every two days. Cells were kept at 37° C. in a humidified 95% air/5% CO2 atmosphere.
HepG2 cells were seeded in 24-well culture dishes at 5×10^4 cells/well and transfected for 2 hours with the reporter plasmid pG5TkpGL3 (50 ng/well), the expression vectors pGal4-f, pGal4-mPPARα, pGal4-hPPARα, pGal4-hPPARγ, or pGal4-hPPARβ (100 ng/well) and the transfection efficiency control vector pRL-CMV (1 ng/well) according to the previously described protocol (Raspe, Madsen et al. 1999), then incubated for 36 hours with the test compounds. At the end of the experiment, the cells were lysed (Gibco, Paisley, UK) and luciferase activity was determined with a Dual-Luciferase™ Reporter Assay System kit (Promega, Madison, Wisc., USA) according to the supplier's instructions. The protein content of the cell extracts was then measured with the Bio-Rad Protein Assay kit (Bio-Rad, Munich, Germany) as directed by the supplier.
The results are expressed as the induction factor (luminescent signal of treated cells divided by luminescent signal of untreated cells) after the different treatments.

[1] = Effects on plasma lipids in rats in vivo; conditions: Sprague-Dawley rats, 300 mg/kg/day, intragastric gavage, once a day for 15 days
Method: Sprague-Dawley rats weighing 200 to 230 g (Charles River, L'Arbresle, France) were housed in a 12-hour light/dark cycle at a constant temperature of 20±3° C. After a 1-week acclimatization period, rats were weighed and distributed into groups of 8 animals selected such that the distribution of plasma cholesterol and triglyceride levels was uniform. The test compounds were suspended in a vehicle (0.5% carboxymethylcellulose (CMC) and 0.1% Tween) and administered by intragastric gavage at the indicated doses, once a day for 15 days. Animals had access to food and water ad libitum. At the end of the experiments, animals were weighed and sacrificed under anesthesia after a 5-hour fast. Blood was collected on EDTA. Plasma was isolated by centrifugation at 3000 rpm for 20 minutes. […]
Lipid concentrations in plasma (total cholesterol and triglycerides) were determined by a […] assay (Bio-Mérieux, Marcy I'Etoile, France) according to the supplier's instructions. Plasma concentrations of apolipoproteins AII, AI and CIII were determined as previously described (Raspe, Madsen et al. 1999) and (Asset, Staels et al. 1999).
To separate the lipoproteins according to size, 300 μl of plasma were loaded on a Sepharose 6HR 10/30 column (Pharmacia, Uppsala, Sweden) and eluted at a constant flow rate (0.2 ml/minute) in PBS (pH 7.2). Optical density of the eluent was recorded at 280 nm. […]

Compound: 1,2-(ditetradecylthioacetyloxy)-3-tetradecylthioacetylaminopropane [Ex 5]
antioxidant activity on LDL oxidation induced by copper (LDL): exhibit intrinsic antioxidant properties
induction factor (luminescent signal of treated cells divided by luminescent signal of untreated cells) (Gal4/PPARα; 5 μM): 1.2 fold
induction factor (luminescent signal of treated cells divided by luminescent signal of untreated cells) (Gal4/PPARα; 15 μM): 2.5 fold
induction factor (luminescent signal of treated cells divided by luminescent signal of untreated cells) (Gal4/PPARα; 50 μM): 7 fold
induction factor (luminescent signal of treated cells divided by luminescent signal of untreated cells) (Gal4/PPARα; 100 μM): 10.5 fold

Compound: CCCCCCCCCCCCCCSCC(=O)NCC(CNC(=O)CSCCCCCCCCCCCCCC)OC(=O)CSCCCCCCCCCCCCCC [Ex 11, 1,3-ditetradecylthioacetylamino-2-(tetradecylthioacetyloxy)propane]
antioxidant activity on LDL oxidation induced by copper (LDL): exhibit intrinsic antioxidant properties
total plasma cholesterol ([1]; D0, D7, D14 (FIG. 3A)): lowered
plasma triglycerides ([1]; D0, D7, D14 (FIG. 3B)): lowered

Compound: 1,2-(dipalmitoyloxy)-3-tetradecylthioacetylaminopropane [Ex 4]
shift in the lag phase latency (delay) (LDL): 34.3%
antioxidant activity on LDL oxidation induced by copper (LDL): exhibit intrinsic antioxidant properties

Compound: CCCCCCCCCCCCCCCC(=S)OC(CN)CN.Cl.Cl
melting point: 224 °C (dec.)

Second part, led by results:

melting point: 104 to 108 °C
Compound: CCCCCCCCCCCCCCCC(=O)NCC(O)CO (stereo not drawn) [Ex 3, 3-(palmitoylamino)propane-1,2-diol]

induction factor (luminescent signal of treated cells divided by luminescent signal of untreated cells) (Gal4/PPARα; 5 μM): 1.5 fold
induction factor (luminescent signal of treated cells divided by luminescent signal of untreated cells) (Gal4/PPARα; 15 μM): 7.7 fold
induction factor (luminescent signal of treated cells divided by luminescent signal of untreated cells) (Gal4/PPARα; 50 μM): 19.8 fold
induction factor (luminescent signal of treated cells divided by luminescent signal of untreated cells) (Gal4/PPARα; 100 μM): 19.2 fold
Compound: CCCCCCCCCCCCCCSCC(=O)NCC(O)CO (stereo not drawn) [Ex 2, 3-(tetradecylthioacetylamino)propane-1,2-diol]
shift in the lag phase latency (delay) (LDL): 13.4%
antioxidant activity on LDL oxidation induced by copper (LDL): exhibit intrinsic antioxidant properties

melting point: 181 °C (dec.)
Compound: CCCCCCCCCCCCCCCC(=S)SC(CN)CN.Cl.Cl

induction factor (luminescent signal of treated cells divided by luminescent signal of untreated cells) (Gal4/PPARα; 5 μM): 1.1 fold
induction factor (luminescent signal of treated cells divided by luminescent signal of untreated cells) (Gal4/PPARα; 15 μM): 2.2 fold
induction factor (luminescent signal of treated cells divided by luminescent signal of untreated cells) (Gal4/PPARα; 50 μM): 9.6 fold
induction factor (luminescent signal of treated cells divided by luminescent signal of untreated cells) (Gal4/PPARα; 100 μM): 14.5 fold
Compound: 1,2-(ditetradecylthioacetyloxy)-3-palmitoylaminopropane [Ex 6]
antioxidant activity on LDL oxidation induced by copper (LDL): exhibit intrinsic antioxidant properties
